Measurements from patent US10202370B2, “Benzimidazole derivatives as selective proteine kinase inhibitors” (AB SCIENCE, priority 2013, dated 2019).

Biological target: c-kit WT (Homo sapiens (Human), UniProt P10721)
Assay: Proliferation assay (CellTiter-Blue) on BaF3 Kit WT cell line
Format: cell-based
Conditions: BaF3 Kit WT cell line (murine Ba/F3 expressing Human Kit WT, with murine SCF), 48 hours
Outline: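 Ba/F3 cells expressing human Kit WT, maintained in RPMI/10% FCS with 250 ng/ml murine SCF, were seeded at 2.10^4 cells/well and exposed to ½ serial dilutions (0–10 μM) for 48 h at 37° C. Viability was measured by CellTiter-Blue fluorescence (544Ex/590Em, 4 h) in triplicate as % of untreated proliferation.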

Chain of c-kit WT (P10721 26-976): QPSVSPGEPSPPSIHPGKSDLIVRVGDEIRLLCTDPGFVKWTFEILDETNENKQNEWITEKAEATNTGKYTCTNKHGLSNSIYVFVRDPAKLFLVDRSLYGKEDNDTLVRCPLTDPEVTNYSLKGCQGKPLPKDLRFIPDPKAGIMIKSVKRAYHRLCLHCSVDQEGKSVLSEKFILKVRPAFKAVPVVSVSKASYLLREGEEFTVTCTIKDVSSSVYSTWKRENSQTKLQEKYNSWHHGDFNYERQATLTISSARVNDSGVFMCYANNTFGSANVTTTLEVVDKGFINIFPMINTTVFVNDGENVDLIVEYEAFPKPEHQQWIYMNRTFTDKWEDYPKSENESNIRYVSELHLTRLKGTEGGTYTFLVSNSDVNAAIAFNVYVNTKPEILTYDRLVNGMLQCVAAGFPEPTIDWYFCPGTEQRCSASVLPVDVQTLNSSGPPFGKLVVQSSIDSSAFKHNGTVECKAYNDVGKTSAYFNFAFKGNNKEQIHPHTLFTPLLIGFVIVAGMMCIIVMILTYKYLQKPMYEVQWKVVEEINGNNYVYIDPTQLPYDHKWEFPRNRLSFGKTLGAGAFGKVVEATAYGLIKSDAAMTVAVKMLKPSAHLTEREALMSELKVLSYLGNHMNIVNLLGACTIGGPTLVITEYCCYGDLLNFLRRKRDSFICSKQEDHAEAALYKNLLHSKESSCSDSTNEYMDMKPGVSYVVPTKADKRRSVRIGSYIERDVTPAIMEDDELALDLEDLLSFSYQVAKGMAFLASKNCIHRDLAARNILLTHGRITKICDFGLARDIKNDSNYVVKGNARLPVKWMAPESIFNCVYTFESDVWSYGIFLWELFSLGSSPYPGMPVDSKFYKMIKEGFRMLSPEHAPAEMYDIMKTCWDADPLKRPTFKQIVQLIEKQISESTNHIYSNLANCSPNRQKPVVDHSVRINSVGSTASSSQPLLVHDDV

| IC50 [nM] | Structure (SMILES) |
| --- | --- |
| ≤ 1000 | Cc1cc2nc(-c3cccc(C(F)(F)F)c3)[nH]c2cc1Nc1nc(-c2cncnc2)cs1 [Compound 062, [6-Methyl-2-(3-trifluoromethyl-phenyl)-3H-benzoimidazol-5-yl]-(4-pyrimidin-5-yl-thiazol-2-yl)-amine] |
| 1000 to 10000 | Cc1cc2nc(-c3cccc(OC(F)(F)F)c3)[nH]c2cc1Nc1nc(-c2cncnc2)cs1 [Compound 063, [6-Methyl-2-(3-trifluoromethoxy-phenyl)-3H-benzoimidazol-5-yl]-(4-pyrimidin-5-yl-thiazol-2-yl)-amine] |
| 1000 to 10000 | Cc1cc2nc(CN3CCOCC3)[nH]c2cc1Nc1nc(-c2cccnc2)cs1 [Compound 064, (6-Methyl-2-morpholin-4-ylmethyl-3H-benzoimidazol-5-yl)-(4-pyridin-3-yl-thiazol-2-yl)-amine] |
| 1000 to 10000 | Cc1cc2nc(-c3ccc(CN4CCN(C)CC4)cc3)[nH]c2cc1Nc1nc(-c2cncnc2)cs1 [Compound 065, {6-Methyl-2-[4-(4-methyl-piperazin-1-ylmethyl)-phenyl]-3H-benzoimidazol-5-yl}-(4-pyrimidin-5-yl-thiazol-2-yl)-amine] |
| 1000 to 10000 | Cc1cccc(-c2nc3cc(C)c(Nc4nc(-c5cncnc5)cs4)cc3[nH]2)c1 [Compound 066, (6-Methyl-2-m-tolyl-1H-benzoimidazol-5-yl)-(4-pyrimidin-5-yl-thiazol-2-yl)-amine] |
| 1000 to 10000 | Cc1cc2nc(-c3ccc(C(F)(F)F)cc3)[nH]c2cc1Nc1nc(-c2cncnc2)cs1 [Compound 067, [6-Methyl-2-(4-trifluoromethyl-phenyl)-1H-benzoimidazol-5-yl]-(4-pyrimidin-5-yl-thiazol-2-yl)-amine] |
| 1000 to 10000 | Cc1cc2nc(-c3cccc(Cl)c3)[nH]c2cc1Nc1nc(-c2cncnc2)cs1 [Compound 068, [2-(3-Chloro-phenyl)-6-methyl-1H-benzoimidazol-5-yl]-(4-pyrimidin-5-yl-thiazol-2-yl)-amine] |
| ≤ 1000 | Cc1cc2nc(-c3cccc(C(F)F)c3)[nH]c2cc1Nc1nc(-c2ccc(C#N)cc2)cs1 [Compound 069, 4-{2-[2-(3-Difluoromethyl-phenyl)-6-methyl-3H-benzoimidazol-5-ylamino]-thiazol-4-yl}-benzonitrile] |
| ≤ 1000 | Cc1cc2nc(-c3cccc(C(F)(F)F)c3)[nH]c2cc1Nc1nc(-c2ccc(C#N)cc2)cs1 [Compound 070, 4-{2-[6-Methyl-2-(3-trifluoromethyl-phenyl)-3H-benzoimidazol-5-ylamino]-thiazol-4-yl}-benzonitrile] |
| ≤ 1000 | Cc1cc2nc(-c3cccc(C(F)F)c3)[nH]c2cc1Nc1nc(-c2ccc(C(N)=O)cc2)cs1 [Compound 071, 4-{2-[2-(3-Difluoromethyl-phenyl)-6-methyl-3H-benzoimidazol-5-ylamino]-thiazol-4-yl}-benzamide] |
| ≤ 1000 | Cc1cc2nc(-c3ccc(C(F)(F)F)cc3)[nH]c2cc1Nc1nc(-c2ccc(C(N)=O)cc2)cs1 [Compound 072, 4-{2-[6-Methyl-2-(4-trifluoromethyl-phenyl)-3H-benzoimidazol-5-ylamino]-thiazol-4-yl}-benzamide] |
| ≤ 1000 | Cc1cc2nc(-c3cccc(OC(F)(F)F)c3)[nH]c2cc1Nc1nc(-c2ccc(C(N)=O)cc2)cs1 [Compound 073, 4-{2-[6-Methyl-2-(3-trifluoromethoxy-phenyl)-3H-benzoimidazol-5-ylamino]-thiazol-4-yl}-benzamide] |
| ≤ 1000 | Cc1cccc(-c2nc3cc(C)c(Nc4nc(-c5ccc(C#N)cc5)cs4)cc3[nH]2)c1 [Compound 074, 4-[2-(6-Methyl-2-m-tolyl-3H-benzoimidazol-5-ylamino)-thiazol-4-yl]-benzonitrile] |
| ≤ 1000 | Cc1cc2nc(-c3cccc(OC(F)(F)F)c3)[nH]c2cc1Nc1nc(-c2ccc(C#N)cc2)cs1 [Compound 075, 4-{2-[6-Methyl-2-(3-trifluoromethoxy-phenyl)-3H-benzoimidazol-5-ylamino]-thiazol-4-yl}-benzonitrile] |
| 1000 to 10000 | Cc1cc2nc(-c3ccc(C(F)(F)F)cc3)[nH]c2cc1Nc1nc(-c2ccc(C#N)cc2)cs1 [Compound 076, 4-{2-[6-Methyl-2-(4-trifluoromethyl-phenyl)-3H-benzoimidazol-5-ylamino]-thiazol-4-yl}-benzonitrile] |
| 1000 to 10000 | Cc1cc2nc(-c3cncn3C)[nH]c2cc1Nc1nc(-c2cccnc2)cs1 [Compound 077, [6-Methyl-2-(3-methyl-3H-imidazol-4-yl)-3H-benzoimidazol-5-yl]-(4-pyridin-3-yl-thiazol-2-yl)-amine] |
| ≤ 1000 | Cc1ccc(-c2nc3cc(C)c(Nc4nc(-c5cccnc5)cs4)cc3[nH]2)s1 [Compound 078, [6-Methyl-2-(5-methyl-thiophen-2-yl)-3H-benzoimidazol-5-yl]-(4-pyridin-3-yl-thiazol-2-yl)-amine] |
| ≤ 1000 | Cc1ccc(-c2nc3cc(Nc4nc(-c5ccncc5)cs4)c(C)cc3[nH]2)s1 [Compound 079, [6-Methyl-2-(5-methyl-thiophen-2-yl)-1H-benzoimidazol-5-yl]-(4-pyridin-4-yl-thiazol-2-yl)-amine] |

| IC50 [nM] | Structure (SMILES) |
| --- | --- |
| 1000 to 10000 | Cc1cc2[nH]c(-c3cncn3C)nc2cc1Nc1nc(-c2ccncc2)cs1 [Compound 080, [6-Methyl-2-(3-methyl-3H-imidazol-4-yl)-1H-benzoimidazol-5-yl]-(4-pyridin-4-yl-thiazol-2-yl)-amine] |
| ≤ 1000 | Cc1cc2c(cc1Nc1nc(-c3ccncc3)cs1)nc(-c1cccc(C(F)F)c1)n2C [Compound 081, [2-(3-Difluoromethyl-phenyl)-1,6-dimethyl-1H-benzoimidazol-5-yl]-(4-pyridin-4-yl-thiazol-2-yl)-amine] |
| ≤ 1000 | Cc1cc2c(cc1Nc1nc(-c3ccncc3)cs1)nc(-c1cccc(C(F)(F)F)c1)n2C [Compound 082, [1,6-Dimethyl-2-(3-trifluoromethyl-phenyl)-1H-benzoimidazol-5-yl]-(4-pyridin-4-yl-thiazol-2-yl)-amine] |
| ≤ 1000 | Cc1cc2c(cc1Nc1nc(-c3ccncc3)cs1)nc(-c1cccc(OC(F)(F)F)c1)n2C [Compound 083, [1,6-Dimethyl-2-(3-trifluoromethoxy-phenyl)-1H-benzoimidazol-5-yl]-(4-pyridin-4-yl-thiazol-2-yl)-amine] |
| ≤ 1000 | Cc1cc2c(cc1Nc1nc(-c3cccnc3)cs1)nc(-c1cccc(C(F)F)c1)n2C [Compound 084, [2-(3-Difluoromethyl-phenyl)-1,6-dimethyl-1H-benzoimidazol-5-yl]-(4-pyridin-3-yl-thiazol-2-yl)-amine] |
| ≤ 1000 | Cc1cc2c(cc1Nc1nc(-c3cccnc3)cs1)nc(-c1cccc(C(F)(F)F)c1)n2C [Compound 085, [1,6-Dimethyl-2-(3-trifluoromethyl-phenyl)-1H-benzoimidazol-5-yl]-(4-pyridin-3-yl-thiazol-2-yl)-amine] |
| ≤ 1000 | Cc1cc2c(cc1Nc1nc(-c3cccnc3)cs1)nc(-c1cccc(OC(F)(F)F)c1)n2C [Compound 086, [1,6-Dimethyl-2-(3-trifluoromethoxy-phenyl)-1H-benzoimidazol-5-yl]-(4-pyridin-3-yl-thiazol-2-yl)-amine] |
| ≤ 1000 | FC(F)c1cccc(-c2nc3cc(Nc4nc(-c5cccnc5)cs4)ccc3[nH]2)c1 [Compound 087, [2-(3-Difluoromethyl-phenyl)-1H-benzoimidazol-5-yl]-(4-pyridin-3-yl-thiazol-2-yl)-amine] |
| 1000 to 10000 | FC(F)(F)c1cccc(-c2nc3cc(Nc4nc(-c5cccnc5)cs4)ccc3[nH]2)c1 [Compound 088, (4-Pyridin-3-yl-thiazol-2-yl)-[2-(3-trifluoromethyl-phenyl)-1H-benzoimidazol-5-yl]-amine] |
| ≤ 1000 | FC(F)(F)Oc1cccc(-c2nc3cc(Nc4nc(-c5cccnc5)cs4)ccc3[nH]2)c1 [Compound 089, (4-Pyridin-3-yl-thiazol-2-yl)-[2-(3-trifluoromethoxy-phenyl)-1H-benzoimidazol-5-yl]-amine] |
| 1000 to 10000 | Cn1c(-c2cccc(C(F)F)c2)nc2cc(Nc3nc(-c4cccnc4)cs3)ccc21 [Compound 090, [2-(3-Difluoromethyl-phenyl)-1-methyl-1H-benzoimidazol-5-yl]-(4-pyridin-3-yl-thiazol-2-yl)-amine] |
| 1000 to 10000 | Cn1c(-c2cccc(C(F)(F)F)c2)nc2cc(Nc3nc(-c4cccnc4)cs3)ccc21 [Compound 091, [1-Methyl-2-(3-trifluoromethyl-phenyl)-1H-benzoimidazol-5-yl]-(4-pyridin-3-yl-thiazol-2-yl)-amine] |
| 1000 to 10000 | Cn1c(-c2cccc(OC(F)(F)F)c2)nc2cc(Nc3nc(-c4cccnc4)cs3)ccc21 [Compound 092, [1-Methyl-2-(3-trifluoromethoxy-phenyl)-1H-benzoimidazol-5-yl]-(4-pyridin-3-yl-thiazol-2-yl)-amine] |
| ≤ 1000 | Cc1cc2c(cc1Nc1nc(-c3cccnc3)cs1)nc(-c1ccc(C(F)F)cc1)n2C [Compound 093, [2-(4-Difluoromethyl-phenyl)-1,6-dimethyl-1H-benzoimidazol-5-yl]-(4-pyridin-3-yl-thiazol-2-yl)-amine] |
| ≤ 1000 | Cc1cc2c(cc1Nc1nc(-c3ccncc3)cs1)nc(-c1ccc(C(F)F)cc1)n2C [Compound 094, [2-(4-Difluoromethyl-phenyl)-1,6-dimethyl-1H-benzoimidazol-5-yl]-(4-pyridin-4-yl-thiazol-2-yl)-amine] |
| 1000 to 10000 | Cc1cc2c(cc1Nc1nc(-c3cccnc3)cs1)nc(-c1cccc(N3CCN(C)CC3)c1)n2C [Compound 095, {1,6-Dimethyl-2-[3-(4-methyl-piperazin-1-yl)-phenyl]-1H-benzoimidazol-5-yl}-(4-pyridin-3-yl-thiazol-2-yl)-amine] |
| 1000 to 10000 | Cc1cc2c(cc1Nc1nc(-c3ccncc3)cs1)nc(-c1cccc(N3CCN(C)CC3)c1)n2C [Compound 096, {1,6-Dimethyl-2-[3-(4-methyl-piperazin-1-yl)-phenyl]-1H-benzoimidazol-5-yl}-(4-pyridin-4-yl-thiazol-2-yl)-amine] |
